Assay results as given in US6989362B1, “Methods of treating dopamine dysregulation using agents that regulate phosphorylation/dephosphorylation in dopamine signaling” (The Rockefeller University, priority 1999, dated 2006).

Experiments:
Cdk5 [1] = assay: Cocaine-induced locomotor activity with intra-accumbens infusion of Cdk5 inhibitors; format: in vivo, rat; conditions: rats, intra-accumbens 40 nmol/0.5 μl
Protocol: Doses of cocaine hydrochloride (15 mg/kg i.p. in sterile 0.9% sodium chloride) were chosen to produce a moderate response to cocaine over successive days. […] Drugs were dissolved in sterile phosphate buffered saline containing 50% DMSO. Intracerebral microinfusions were made bilaterally in volumes of 0.5 μl over a period of 2 min with an additional 2 min allowed to elapse prior to removal of the infusion needles and replacement of the stylettes. […] Drugs were given at the same time each day. Subjects were then placed into the chambers and activity was monitored for 60 min.

D1 receptor = assay: D1 agonist-induced phosphorylation of PKA substrates in striatal slices; format: cell-based, mouse; conditions: 1 μM, 10 min
Protocol: Dopamine achieves many of its effects in neurons by activation of the D1 class of dopamine receptors, which are positively coupled to the activation of PKA. […] For this purpose, the state of phosphorylation of GluR1, DARPP-32, ARPP-21, and ARPP-16 was determined using phosphorylation state-specific antibodies. […] No significant difference was observed between wildtype and p35^−/− mice in basal levels of phosphorylation of any of these substrates.

[2] = system: dissociated striatal neurons; assay: Whole-cell voltage-gated Ca2+ current, patch-clamp of dissociated striatal neurons; format: cell-based, mouse; conditions: 10 μM
Protocol: The physiological consequence of PKA inhibition by phospho-Thr75 DARPP-32 was also assessed. […] Opin. Neurobiol. 8:330-334 (1998)], were analyzed using patch-clamp recordings of dissociated striatal neurons (FIGS. 3g and 3h). […] This effect was virtually abolished in neurons from DARPP-32 knockout mice (1.6±0.3%, n=5, p<0.01, paired t test).

mouse striatal slices = assay: Phosphorylation of PKA substrates in striatal slices treated with roscovitine; conditions: 10 μM, 1 h
Cdk5 [3] = assay: Cdk5 mRNA and protein levels in striatum after chronic cocaine; format: in vivo, rat
From the text: FIGS. 8A-8C show the increased expression of Cdk5 in inducible transgenic mice overexpressing ΔFosB and in rats chronically treated with cocaine. […] The positions of oligonucleotides encoding ΔFosB and Cdk5 are indicated. […] Representative labelings are shown for sections from inducible transgenic mice on (Dox) or off doxycycline (H2O) (left) and rats treated chronically with saline or cocaine (right). Quantitation of signals in the caudatoputaman (CP) and nucleus accumbens (NA) are shown. […] Representative Cdk5 immunoblots of striatal tissue dissected from inducible transgenic mice on or off doxycycline (left) and from rats treated chronically with saline or cocaine (right) are shown with quantitation. Data represent means ±SEM for n=6; *p<0.05 compared to control, Student's t test.
ΔFosB-inducible transgenic mice were either fed […] doxycycline or denied doxycycline for 12 weeks. Adult male Sprague-Dawley rats initially weighing between 160-240 g were injected with cocaine or vehicle (i.p., 20 mg/kg, […]) at the same time each day for 8 days. All analyses were initiated 12 hr after the final dose. For in situ hybridization studies, [α-^35S]UTP-labeled riboprobes were prepared by in vitro transcription from cDNA clones corresponding to full-length clones of rat Cdk5 [Zheng et al., J. Neurobiol. 35:141-159 (1998)]. Cryostat sections were prepared and hybridized as previously described. After hybridization, the sections were exposed to Biomax MR film (Kodak) for 2-6 days. All autoradiograms were analyzed with a Microcomputer Imaging Device system (M4, Imaging Research, Inc.) as described elsewhere [Le Moine and Bloch, J. Comp. Neurol. 355:418426 (1995)]. Statistical analyses of the data were performed using two-tailed unpaired Student's t test. Striatal tissue was rapidly dissected on ice and homogenized in boiling lysis buffer containing 1% SDS and 50 mM sodium flouride with sonication. Striatal slice preparation and treatment were conducted as previously described [Example 1, Bibb et al., Nature 402:669-671 (1999); Nishi et al., J. Neurosci 17:8147-8155 (1997)]. […]

[4] = rats, 20 mg/kg i.p. daily for 8 days, in situ hybridization

Compound: Cn1cnc2nc(NCCO)nc(NCc3ccccc3)c21 [iso-olomoucine]
- locomotor or stereotypic responses to cocaine (Cdk5 [1]): failed to enhance

Compound: Oc1cc2c(c(Cl)c1O)CCNCC2c1ccccc1 (stereo not drawn) [SKF 81297]
- phosphorylation of GluR1, DARPP-32, ARPP-21 and ARPP-16 (PKA sites) (D1 receptor; p35−/− mouse striatal slices, versus wildtype): to an even greater extent
- phosphorylation of GluR1, DARPP-32, ARPP-21 and ARPP-16 (PKA sites) (D1 receptor; wildtype mouse striatal slices): increased

Compound: CC[C@H](CO)Nc1nc(NCc2ccccc2)c2ncn(C(C)C)c2n1 [roscovitine]
- enhancement of whole-cell Ca2+ current ([2]; neurons from DARPP-32 knockout mice): 1.6±0.3%
- enhancement of whole-cell Ca2+ current ([2]; wildtype neurons): 9.7% ±1.0%
- increase in phospho-Ser845 GluR1 (mouse striatal slices; striatal slices from DARPP-32−/− mice): not observed
- Total GluR1 levels (mouse striatal slices; striatal slices): unaffected
- increase in phosphorylation of ARPP-16 (phospho-Ser88) (mouse striatal slices; wildtype mouse striatal slices): 2.5±0.2 fold
- increase in phosphorylation of GluR1 (phospho-Ser845) (mouse striatal slices; wildtype mouse striatal slices): 3.2±0.5 fold

Compound: COC(=O)[C@H]1[C@@H](OC(=O)c2ccccc2)C[C@@H]2CC[C@H]1N2C [cocaine]
- Cdk5 protein levels in striatal tissue versus control (Cdk5 [3]; rats exposed chronically, immunoblot): 180±20%
- Cdk5 mRNA levels in caudatoputamen versus saline (Cdk5 [3]; [4]): 151.8±11.8%
- Cdk5 mRNA levels in nucleus accumbens versus saline (Cdk5 [3]; [4]): 150.5±10.0%
